Entries after “also recorded” stand apart in the source; their conditions may differ. Like-named read-outs stand apart in the source and are kept apart here.
Experiments:
[1] = tested on: Jurkat T-lymphocyte cells; test: Inhibition of Nef M1 peptide-induced mitochondrial depolarization/apoptosis in Jurkat cells (JC-1); type: cell-based, human; conditions: for EC50: JC-1; for protection against M1 (control drugs): data not shown
HIV-1IIIB = test: MAGI antiviral (entry) assay with HIV-1IIIB in HeLa-derived MAGI-CCR5/CXCR4 cells; type: cell-based
Description: MAGI-CCR5/CXCR4 cells are derived from HeLa-CD4-LTR-β-gal cells. The cells have been engineered to express high levels of CD4 and CXCR4 and contain one copy of the HIV-1 LTR promoter driving expression of the β-galactosidase gene upon HIV-1 Tat transactivation. On the day preceding the assay, the cells are plated at 1 × 10^4 well and incubated at 37°C overnight. Total cell and viability quantification is performed using a hemacytometer and trypan blue exclusion.
The virus used for these tests is the CXCR4-tropic strain HIV-1IIIB. […] For each assay, a pre-titered aliquot of virus is removed from the freezer (−80°C) and allowed to thaw slowly to room temperature in a biological safety cabinet.
Compounds are evaluated at one or two concentrations (e.g., for initial screening) or in dose-response at six concentrations (triplicate wells/concentration). On the day of assay setup, compound dilutions are prepared at two-times (2×) the final required concentrations. Media used for plating the cells the day before assay setup is aspirated from the plates and replaced with 50 μL of the 2× compounds, followed by the addition of 50 μL of virus, which dilutes the compounds to the final 1X concentrations. Cell control wells (cells only) and virus control wells (cells plus virus) are included on each assay plate. Identical uninfected assay plates (virus replaced with media) are prepared for parallel cytotoxicity testing.
Once HIV-1 has attached and entered the MAGI-CXCR4 cells, HIV-1 Tat transactivates the LTR dependent β-galactosidase enzyme to express higher than normal levels of β-galactosidase. […] At 48 hours or 6 days post infection, plates are aspirated, and PBS is added to each well. Gal-screen reagent (Tropix, Bedford, MA) is then added per the manufacturer's instructions for chemiluminescent detection of β-galactosidase activity and incubated at room temperature for 90 minutes. The resulting chemiluminescence signal is then read using a Microbeta Trilux luminescence reader (PerkinElmer/Wallac).
Percent inhibition of virus replication and percent cell viability at each concentration are calculated using an in-house computer program. […] Raw data for both antiviral activity and cytotoxicity with analyzed/tabulated data are provided in a printout summarizing the individual compound activity. For dose-response testing, a graphical representation of the data is also provided.

MDA-MB-231 cells [2] = conditions: Figure 8B, TUNEL
Description: (D) MDA-MB-231 cells mock treated were analyzed via TUNEL.
(§1) Cells were grown to 80% confluence in 35 mm plates, either untreated or treated with 10 ng/ml of Nef Motif1 or CXCR4 antagonists for 24 hours. The cells were washed twice in ice-cold PBS and then fixed in 4% paraformaldehyde 1 hour. TUNEL assay for apoptosis and microscopy were done as described previously.

MDA-MB-231 cells [3] = test: Mitochondrial depolarization of MDA-MB-231 breast cancer cells (JC-1 stain); conditions: for depolarization of MDA-MB-231 cells in dose response (qualitative): Figure 10; for EC50 / inhibition at 100 µM: Homo sapiens; for inhibition at 100 µM: MDA-MB-231, read-out: inhibition (effect) reached in MDA-MB-231 depolarization assay; for depolarization of MDA-MB-231 cells (qualitative): at concentrations below 10 μM; for depolarization/apoptosis of MDA-MB-231 cells (qualitative): up to 100 μM
CXCR4 = biological target: T1, CXCR4 (Homo sapiens, UniProt P61073); test: Inhibition of SDF-1α-mediated calcium flux in CXCR4-expressing CEM cells; type: cell-based; conditions: for IC50: read-out: CEM SDF-1 Ca2+ Flux IC50
T1 construct: CXCR4-expressing CEM cells; endogenous in cells; host or cells: CEM cells
Description: CXCR4- expressing CEM cells were loaded with Fluo-4, washed, and pre- incubated with the indicated concentrations of test compounds for 10 min.

Jurkat cells = test: M1 peptide-induced apoptosis in Jurkat cultures (TUNEL); type: cell-based, human
Description: (A) Fluorescent microscopy images of Jurkat cultures stained via TUNEL. (B) TUNEL stained cells were counted and quantified. Fluorescent microscopy images were arranged with Adobe photoshop 6.0 software and analyzed by Image-Pro 6.3 software (Media Cybernetics, Silver Spring, MD).
as §1

[4] = Homo sapiens, Jurkat, read-out: EC50 against M1-mediated apoptosis in Jurkat cells
[5] = Human immunodeficiency virus 1, MAGI, read-out: HIV-1IIIB MAGI IC50
[6] = Human immunodeficiency virus 1, MAGI-CCR5/CXCR4 cells, β-galactosidase reporter, read-out: HeLa HIV-1IIIB MAGI IC50
[7] = MDA-MB-231, 24 h, read-out: MDA-MB-231 Depolarization EC50
[8] = Homo sapiens, Jurkat, 24 h, concentration inhibiting M1-induced mitochondrial depolarization by 50%, 10 ng/mL M1, 24 h, read-out: Jurkat M1 Inhibition EC50
[9] = MDA-MB-231, read-out: EC50 depolarization/apoptosis of MDA-MB-231 cells

T1 sequence (P61073 whole entry): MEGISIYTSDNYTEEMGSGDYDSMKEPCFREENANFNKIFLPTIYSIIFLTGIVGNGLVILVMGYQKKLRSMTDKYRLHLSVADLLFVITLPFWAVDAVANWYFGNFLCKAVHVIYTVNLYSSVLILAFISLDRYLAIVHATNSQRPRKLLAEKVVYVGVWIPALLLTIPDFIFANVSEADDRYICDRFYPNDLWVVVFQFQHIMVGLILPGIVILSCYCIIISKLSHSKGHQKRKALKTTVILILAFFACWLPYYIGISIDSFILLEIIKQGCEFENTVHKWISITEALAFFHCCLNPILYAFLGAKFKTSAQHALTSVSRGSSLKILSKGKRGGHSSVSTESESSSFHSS

## c1cc(CN2CCCNCCNCCCNCC2)ccc1CN1CCCNCCNCCCNCC1 [AMD3100, reference compound]
[1]; [4]
  EC50: 473 nM
HIV-1IIIB; [5]
  IC50: 2 to 5 nM
HIV-1IIIB; [6]
  IC50: 2 nM
MDA-MB-231 cells [2]
  Apoptosis (%): 89.5%
MDA-MB-231 cells [3]; Figure 8A, JC-1 staining
  Depolarization (%): 91%
MDA-MB-231 cells [3]
  depolarization of MDA-MB-231 cells in dose response (qualitative): significant depolarization
MDA-MB-231 cells [3]; [7]
  EC50: 123 nM

## NCCCN(C[C@@H]1CN(Cc2ccccc2)CCN1)[C@H]1CCCc2cccnc21 [Compound 5]
[1]; [8]
  EC50: 10 nM
HIV-1IIIB; [6]
  IC50: 30 nM
CXCR4
  IC50: 190 nM
MDA-MB-231 cells [3]; [7]
  EC50: 0.39 nM

## CN(C[C@@H]1CN(Cc2ccc(C(F)(F)F)cc2)CCN1)[C@H]1CCCc2cccnc21 [Compound 7]
[1]; [8]
  EC50: 12700 nM
HIV-1IIIB; [6]
  IC50: 8010 nM
CXCR4
  IC50: > 50000 nM
MDA-MB-231 cells [3]; [7]
  EC50: 85000 nM

## TNAACAWLEAQ [Compound M1, pro-apoptotic peptide, residues 50–60 of HIV-1 Nef]
Jurkat cells; 10 ng/mL, 24 h, no antagonist
  apoptosis induction in Jurkat cultures by peptide: displayed apoptosis

## NC(=O)NCCCCN(C[C@H]1Cc2ccccc2CN1)[C@H]1CCCc2cccnc21 [Compound 1]
[1]; [8]
  EC50: 0.3 nM
HIV-1IIIB; Human immunodeficiency virus 1, MAGI, read-out: HeLa HIV-1IIIB MAGI IC50
  IC50: 210 nM
CXCR4
  IC50: 4 nM
MDA-MB-231 cells [3]; [7]
  EC50: 0.8 nM

## Maraviroc [reference compound]
[1]
  protection against M1 (control drugs): did not confer protection
MDA-MB-231 cells [3]
  depolarization of MDA-MB-231 cells in dose response (qualitative): No depolarization

## CN(C[C@@H]1CN(Cc2ccccc2)CCN1)[C@H]1CCCc2cccnc21 [Compound 6]
[1]; [4]
  EC50: 53 nM
HIV-1IIIB; [5]
  IC50: < 100 nM
HIV-1IIIB; [6]
  IC50: 850 nM
CXCR4
  IC50: 3300 nM
MDA-MB-231 cells [3]; [7]
  EC50: 10000 nM
MDA-MB-231 cells [3]
  inhibition at 100 µM: ≤ 65%
  depolarization of MDA-MB-231 cells (qualitative): failed to depolarize

## CC1(C)CN2C(CSC(=NC3CCCCC3)NC3CCCCC3)=CSC2=N1 [IT1t, reference compound]
[1]; [4]
  EC50: < 100 nM
[1]; concentration inhibiting M1-induced mitochondrial depolarization by 50%, 10 ng/mL M1, 24 h, listed as It1t, read-out: Jurkat M1 Inhibition EC50
  EC50: 0.7 nM
[1]; concentration inhibiting M1-induced mitochondrial depolarization by 50%, 10 ng/mL M1, 24 h, read-out: Jurkat M1 Inhibition EC50
  EC50: ≤ 1000 nM
HIV-1IIIB; [6]
  IC50: 10 nM
Jurkat cells; prophylactic 50 nM, then M1
  protection from M1-mediated apoptosis: complete protection
MDA-MB-231 cells [3]; [7]
  EC50: 6.25 nM

## c1cnc(NCc2ccc(CNc3ncccn3)cc2)nc1 [MSX-122, reference compound]
[1]; [8]
  EC50: 12000 nM
HIV-1IIIB; [6]
  IC50: > 10000 nM
CXCR4
  CXCR4 functional response in calcium flux assay (qualitative): no measurable CXCR4 functional response
  IC50: > 10000 nM
MDA-MB-231 cells [3]; [7]
  EC50: 81 nM
MDA-MB-231 cells [3]; [9]
  EC50: < 100 nM

## c1ccc(Cc2cn[nH]c2C2CCN(Cc3ccncc3)CC2)cc1 [Compound 8]
[1]; [8]
  EC50: 1100 nM
HIV-1IIIB; [6]
  IC50: 780 nM
CXCR4
  CXCR4 functional response in calcium flux assay (qualitative): no measurable CXCR4 functional response
MDA-MB-231 cells [3]; [7]
  EC50: 28 nM
MDA-MB-231 cells [3]; [9]
  EC50: < 100 nM

## NCCCCN(C[C@H]1Cc2ccccc2CN1Cc1cnccn1)[C@H]1CCCc2cccnc21 [Compound 3]
[1]; [8]
  EC50: 3.5 nM
HIV-1IIIB; [6]
  IC50: 790 nM
CXCR4
  IC50: 110 nM
MDA-MB-231 cells [3]; [7]
  EC50: 15 nM
MDA-MB-231 cells [3]
  inhibition at 100 µM: ≤ 65%

## Cc1cn([C@H]2C[C@H](N=[N+]=[N-])[C@@H](CO)O2)c(=O)[nH]c1=O [AZT, reference compound]
[1]
  protection against M1 (control drugs): did not confer protection
MDA-MB-231 cells [3]
  depolarization of MDA-MB-231 cells in dose response (qualitative): No depolarization

## c1ccc(CNCCCCN(C[C@H]2Cc3ccccc3CN2)[C@H]2CCCc3cccnc32)nc1 [Compound 2]
MDA-MB-231 cells [2]
  Apoptosis (%): 93%

## NCCCCN(C[C@H]1Cc2ccccc2CN1Cc1ccncn1)[C@H]1CCCc2cccnc21 [Compound 4]
[1]; [4]
  EC50: 52 nM
HIV-1IIIB; [5]
  IC50: < 100 nM
HIV-1IIIB; [6]
  IC50: 3 nM
CXCR4
  IC50: 7700 nM
MDA-MB-231 cells [3]; [7]
  EC50: > 100000 nM
MDA-MB-231 cells [3]
  inhibition at 100 µM: ~20%
  depolarization of MDA-MB-231 cells (qualitative): failed to depolarize
  depolarization/apoptosis of MDA-MB-231 cells (qualitative): no apoptosis; also recorded: failed to depolarize
MDA-MB-231 cells [3]; listed as compound 4
  depolarization/apoptosis of MDA-MB-231 cells (qualitative): no effect

— paper PMC5908301, “Small molecule CXCR4 antagonists block the HIV-1 Nef/CXCR4 axis and selectively initiate the apoptotic program in breast cancer cells” (Oncotarget, 2018)
